Measured values from PubChem BioAssay AID330 (DTP/NCI, 2004).
Values joined by “and” are separate entries in the source; they are usually repeats but may differ in a detail not shown here. Equal values may be shown once. Toxic doses and inconclusive results are not listed. How the source made its calls: active means survival T/C of 150% or more; inactive means T/C below 125% in these data.

System: P388 leukemia ip, CD2F1 mice, survival T/C
Experiment: NCI In Vivo Anticancer Drug Screen. Data for tumor model P388 Leukemia (intraperitoneal) in CD2F1 (CDF1) mice
Settings: endpoint: median survival time, higher = longer survival
In short: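 Mice carrying the transplanted tumor received test compound or vehicle. Survival was recorded in each group, and the value is the treated-group measurement divided by that of the vehicle-treated control group.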

[1] = dose: 60.0 mg/kg/injection, schedule: Q01DX005 (ip), vehicle: saline
[2] = dose: 120.0 mg/kg/injection, schedule: Q01DX005 (ip), vehicle: saline
[3] = dose: 240.0 mg/kg/injection, schedule: Q01DX005 (ip), vehicle: saline
[4] = dose: 50.0 mg/kg/injection, schedule: Q01DX001 (ip), vehicle: Klucel (hydroxypropylcellulose) (HPC)
[5] = dose: 100.0 mg/kg/injection, schedule: Q01DX001 (ip), vehicle: Klucel (hydroxypropylcellulose) (HPC)
[6] = dose: 200.0 mg/kg/injection, schedule: Q01DX001 (ip), vehicle: Klucel (hydroxypropylcellulose) (HPC)
[7] = dose: 25.0 mg/kg/injection, schedule: Q01DX009 (ip), vehicle: distilled water + Tween-80
[8] = dose: 100.0 mg/kg/injection, schedule: Q01DX009 (ip), vehicle: distilled water + Tween-80
[9] = dose: 200.0 mg/kg/injection, schedule: Q01DX009 (ip), vehicle: distilled water + Tween-80
[10] = dose: 400.0 mg/kg/injection, schedule: Q01DX009 (ip), vehicle: distilled water + Tween-80
[11] = dose: 25.0 mg/kg/injection, schedule: Q01DX009 (ip), vehicle: saline with Tween-80
[12] = dose: 50.0 mg/kg/injection, schedule: Q01DX009 (ip), vehicle: saline with Tween-80
[13] = dose: 200.0 mg/kg/injection, schedule: Q01DX009 (ip), vehicle: saline with Tween-80
[14] = dose: 6.25 mg/kg/injection, schedule: Q01DX009 (ip), vehicle: saline with Tween-80
[15] = dose: 12.5 mg/kg/injection, schedule: Q01DX009 (ip), vehicle: saline with Tween-80

Measured: T/C

CSC(=S)Nc1nc2ccc(Cl)cc2s1
inactive: dose: 6.25 mg/kg/injection, schedule: Q01DX009 (ip), vehicle: Klucel (hydroxypropylcellulose) (HPC) 104 % of control | dose: 12.5 mg/kg/injection, schedule: Q01DX009 (ip), vehicle: Klucel (hydroxypropylcellulose) (HPC) 111 % of control | dose: 25.0 mg/kg/injection, schedule: Q01DX009 (ip), vehicle: Klucel (hydroxypropylcellulose) (HPC) 88 % of control

Cc1[nH]c(/N=C/c2ccc(N(C)C)cc2)c(C#N)c1C
inactive: dose: 60.0 mg/kg/injection, schedule: Q01DX005 (ip), vehicle: saline with Tween-80 91 % of control | dose: 120.0 mg/kg/injection, schedule: Q01DX005 (ip), vehicle: saline with Tween-80 90 % of control | dose: 240.0 mg/kg/injection, schedule: Q01DX005 (ip), vehicle: saline with Tween-80 97 % of control

COCC#CC(C)(C)OC
inactive: [1] 95 % of control | [2] 95 % of control | [3] 99 % of control

COC(=O)c1ccccc1N=Nc1ccc(N(CCCl)CCCl)cc1
inactive: [4] 112 % of control | [5] 108 % of control | [6] 113 % of control

C=C1C2CCC3C45C=NCC(C)(CCC4)C5CCC3(C2)C1OC(C)=O (stereo not given)
inactive: dose: 2.0 mg/kg/injection, schedule: Q01DX009 (ip), vehicle: Klucel (hydroxypropylcellulose) (HPC) 104 % of control | dose: 4.0 mg/kg/injection, schedule: Q01DX009 (ip), vehicle: Klucel (hydroxypropylcellulose) (HPC) 94 % of control | dose: 8.0 mg/kg/injection, schedule: Q01DX009 (ip), vehicle: Klucel (hydroxypropylcellulose) (HPC) 104 % of control | dose: 16.0 mg/kg/injection, schedule: Q01DX009 (ip), vehicle: Klucel (hydroxypropylcellulose) (HPC) 93 % of control

N#Cc1ccccc1NCc1ccccc1
inactive: dose: 12.5 mg/kg/injection, schedule: Q01DX009 (ip), vehicle: distilled water + Tween-80 103 % of control | [7] 102 % of control | dose: 50.0 mg/kg/injection, schedule: Q01DX009 (ip), vehicle: distilled water + Tween-80 100 % of control and 97 % of control | [8] 100 % of control and 103 % of control and 92 % of control | [9] 94 % of control and 95 % of control (2×) | [10] 99 % of control and 93 % of control | dose: 600.0 mg/kg/injection, schedule: Q01DX009 (ip), vehicle: distilled water + Tween-80 99 % of control

O=C(O)CNC(=O)C1(N2C(=O)c3ccccc3C2=O)CCCC1
inactive: dose: 50.0 mg/kg/injection, schedule: Q01DX005 (ip), vehicle: saline with Tween-80 99 % of control | dose: 100.0 mg/kg/injection, schedule: Q01DX005 (ip), vehicle: saline with Tween-80 101 % of control | dose: 200.0 mg/kg/injection, schedule: Q01DX005 (ip), vehicle: saline with Tween-80 97 % of control

CCOC(=O)C(OCC)C1=Cc2ccccc2CC1 (stereo not given)
inactive: dose: 25.0 mg/kg/injection, schedule: Q01DX001 (ip), vehicle: Klucel (hydroxypropylcellulose) (HPC) 93 % of control | [4] 100 % of control | [5] 93 % of control | [6] 102 % of control | dose: 400.0 mg/kg/injection, schedule: Q01DX001 (ip), vehicle: Klucel (hydroxypropylcellulose) (HPC) 107 % of control

COC(=O)C(C)(OC)OC
inactive: dose: 100.0 mg/kg/injection, schedule: Q04DX003 (ip), vehicle: saline 100 % of control | dose: 200.0 mg/kg/injection, schedule: Q04DX003 (ip), vehicle: saline 109 % of control | dose: 400.0 mg/kg/injection, schedule: Q04DX003 (ip), vehicle: saline 100 % of control

CCCCCCCCCCCCCCCCCSCc1ccc(Nc2ccccc2)cc1
inactive: [11] 108 % of control | dose: 50.0 mg/kg/injection, schedule: Q01DX009 (ip), vehicle: other 116 % of control | [12] 103 % of control and 108 % of control | dose: 100.0 mg/kg/injection, schedule: Q01DX009 (ip), vehicle: other 116 % of control | dose: 100.0 mg/kg/injection, schedule: Q01DX009 (ip), vehicle: saline with Tween-80 103 % of control | dose: 200.0 mg/kg/injection, schedule: Q01DX009 (ip), vehicle: other 118 % of control | [13] 116 % of control and 93 % of control

COc1ccc([N+](=O)[O-])c(C=O)c1OS(=O)(=O)c1ccc(C)c([N+](=O)[O-])c1
inactive: [7] 93 % of control | [8] 98 % of control | [9] 90 % of control | [10] 90 % of control

[Cl][Pd][Cl].[NH-]C(CC(N)=O)C(=O)O (stereo not given)
inactive: dose: 12.5 mg/kg/injection, schedule: Q01DX005 (ip), vehicle: Klucel (hydroxypropylcellulose) (HPC) 101 % of control | dose: 25.0 mg/kg/injection, schedule: Q01DX005 (ip), vehicle: Klucel (hydroxypropylcellulose) (HPC) 95 % of control | dose: 50.0 mg/kg/injection, schedule: Q01DX005 (ip), vehicle: Klucel (hydroxypropylcellulose) (HPC) 100 % of control and 113 % of control

OCCC[N+]12CCCN1CCC2
inactive: dose: 50.0 mg/kg/injection, schedule: Q01DX009 (ip), vehicle: saline 98 % of control | dose: 100.0 mg/kg/injection, schedule: Q01DX009 (ip), vehicle: saline 104 % of control

CC(C)=CCC(OC(=O)C=C(C)C)c1cc(O)c2c(O)ccc(O)c2c1O.[Fe] (stereo not given)
inactive: dose: 100.0 mg/kg/injection, schedule: Q04DX002 (ip), vehicle: saline with Tween-80 92 % of control | dose: 200.0 mg/kg/injection, schedule: Q04DX002 (ip), vehicle: saline with Tween-80 92 % of control | dose: 400.0 mg/kg/injection, schedule: Q04DX002 (ip), vehicle: saline with Tween-80 93 % of control

CC(C)(C)NC(=O)c1ccc2c(n1)C(=O)N(C(C)(C)C)C2=S
inactive: dose: 100.0 mg/kg/injection, schedule: Q01DX001 (ip), vehicle: saline with Tween-80 91 % of control | dose: 200.0 mg/kg/injection, schedule: Q01DX001 (ip), vehicle: saline with Tween-80 94 % of control | dose: 400.0 mg/kg/injection, schedule: Q01DX001 (ip), vehicle: saline with Tween-80 100 % of control

COC(=O)C1(CC(C)=O)NC(=S)NC(=O)C1C#N (stereo not given)
inactive: [1] 100 % of control | [2] 96 % of control | [3] 97 % of control

COc1nc(NC2OC(CO)C(O)C(O)C2O)c(Cl)c(=O)[nH]1 (stereo not given)
inactive: [1] 97 % of control | [2] 94 % of control | [3] 102 % of control

CCCCCCCCCCCC(=O)OCCN(CCOC(=O)CCCCCCCCCCC)C(=O)COC(=O)CCCCCCCCCCC
inactive: [14] 96 % of control | [15] 98 % of control | [11] 100 % of control | dose: 100.0 mg/kg/injection, schedule: Q01DX009 (ip), vehicle: saline + Tween-80 + alcohol 111 % of control | dose: 200.0 mg/kg/injection, schedule: Q01DX009 (ip), vehicle: saline + Tween-80 + alcohol 107 % of control

Cc1cc2nc3c(=O)[nH]c(=O)nc-3n(CC=O)c2cc1C
inactive: dose: 16.0 mg/kg/injection, schedule: Q01DX009 (ip), vehicle: saline with Tween-80 92 % of control | dose: 32.0 mg/kg/injection, schedule: Q01DX009 (ip), vehicle: saline with Tween-80 91 % of control | dose: 64.0 mg/kg/injection, schedule: Q01DX009 (ip), vehicle: saline with Tween-80 90 % of control | dose: 128.0 mg/kg/injection, schedule: Q01DX009 (ip), vehicle: saline with Tween-80 90 % of control | dose: 135.0 mg/kg/injection, schedule: Q01DX009 (ip), vehicle: saline with Tween-80 104 % of control | dose: 180.0 mg/kg/injection, schedule: Q01DX009 (ip), vehicle: saline with Tween-80 104 % of control | dose: 240.0 mg/kg/injection, schedule: Q01DX009 (ip), vehicle: saline with Tween-80 104 % of control | dose: 256.0 mg/kg/injection, schedule: Q01DX009 (ip), vehicle: saline with Tween-80 102 % of control | dose: 320.0 mg/kg/injection, schedule: Q01DX009 (ip), vehicle: saline with Tween-80 102 % of control

CS/C(=N/N=C(\C)c1ccccn1)[Se][Se]/C(=N/N=C(\C)c1ccccn1)SC
inactive: [14] 90 % of control | [15] 97 % of control | [12] 93 % of control | [13] 93 % of control
